Assay results from US12448394B2, “Heterocyclic pyrazole derivatives as type III receptor tyrosine kinase inhibitors” (DEVELOPMENT CENTER FOR BIOTECHNOLOGY, priority 2019, dated 2025).

Legend:
MET kinase = target: T1, MET kinase (Homo sapiens, UniProt P08581); assay: MET kinase assay (AlphaScreen, counter screen); format: biochemical; details: read-out: Ranking of IC50 values, MET
T1 construct: purchased SignalChem
Outline: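 Recombinant MET kinase (1 ng) phosphorylated biotinylated poly(Glu4:Tyr1) with […] ATP (so in the source) in MOPS pH 7.0 buffer with 10 mM MgCl2, 45 min at 30 °C, stopped with EDTA. Product read by AlphaScreen; IC50 from serial dilutions run in duplicate.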

[1] = tested on: HCC827 NSCLC cell with EGFR exon 19 deletion mutation; assay: HCC827 cell proliferation assay (counter screen); format: cell-based, human; details: Homo sapiens, HCC827 cells, 72 hours treatment, CellTiter96, read-out: anti-proliferation activity HCC827 EGFR Exon19 del, IC50 ranking
Outline: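 HCC827 cells (EGFR exon 19 deletion) were seeded at 8000 cells/well in RPMI1640 with 10% FBS, then exposed to increasing compound concentrations for 72 h at 37 °C. Viability was read by CellTiter96 AQueous One (MTS), absorbance 490 nm after 2–4 h.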

[2] = tested on: A375 melanoma cell with BRAF V600E mutation; assay: A375 cell proliferation assay (counter screen); format: cell-based, human; details: Homo sapiens, A-375, A375 cells, 72 hours treatment, CellTiter96, read-out: anti-proliferation activity A375 BRAF V600E, IC50 ranking
Outline: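 A375 cells (BRAF V600E) seeded at 2000 cells/well in DMEM with 10% FBS, settled overnight at 37° C, 5% CO2, then exposed to increasing compound concentrations for 72 hours. Viability read by MTS-type CellTiter96 AQueous reagent, absorbance at 490 nm after 2–4 hours.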

[3] = tested on: THP-1 human acute monocytic leukemia cell with NRAS G12D mutation; assay: THP-1 cell proliferation assay (counter screen); format: cell-based; details: Homo sapiens, THP-1 cells, 72 hours treatment, CellTiter96, read-out: anti-proliferation activity THP-1 NRAS N12D, IC50 ranking
Outline: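 THP-1 cells (NRAS G12D, growth independent of class III RTK signaling) seeded at 5000 cells/well overnight, then exposed to increasing compound concentrations for 72 h at 37° C, 5% CO2. Viability read by CellTiter96 AQueous One reagent (2–4 h) as absorbance at 490 nm.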

T1 sequence (P08581 25-1390): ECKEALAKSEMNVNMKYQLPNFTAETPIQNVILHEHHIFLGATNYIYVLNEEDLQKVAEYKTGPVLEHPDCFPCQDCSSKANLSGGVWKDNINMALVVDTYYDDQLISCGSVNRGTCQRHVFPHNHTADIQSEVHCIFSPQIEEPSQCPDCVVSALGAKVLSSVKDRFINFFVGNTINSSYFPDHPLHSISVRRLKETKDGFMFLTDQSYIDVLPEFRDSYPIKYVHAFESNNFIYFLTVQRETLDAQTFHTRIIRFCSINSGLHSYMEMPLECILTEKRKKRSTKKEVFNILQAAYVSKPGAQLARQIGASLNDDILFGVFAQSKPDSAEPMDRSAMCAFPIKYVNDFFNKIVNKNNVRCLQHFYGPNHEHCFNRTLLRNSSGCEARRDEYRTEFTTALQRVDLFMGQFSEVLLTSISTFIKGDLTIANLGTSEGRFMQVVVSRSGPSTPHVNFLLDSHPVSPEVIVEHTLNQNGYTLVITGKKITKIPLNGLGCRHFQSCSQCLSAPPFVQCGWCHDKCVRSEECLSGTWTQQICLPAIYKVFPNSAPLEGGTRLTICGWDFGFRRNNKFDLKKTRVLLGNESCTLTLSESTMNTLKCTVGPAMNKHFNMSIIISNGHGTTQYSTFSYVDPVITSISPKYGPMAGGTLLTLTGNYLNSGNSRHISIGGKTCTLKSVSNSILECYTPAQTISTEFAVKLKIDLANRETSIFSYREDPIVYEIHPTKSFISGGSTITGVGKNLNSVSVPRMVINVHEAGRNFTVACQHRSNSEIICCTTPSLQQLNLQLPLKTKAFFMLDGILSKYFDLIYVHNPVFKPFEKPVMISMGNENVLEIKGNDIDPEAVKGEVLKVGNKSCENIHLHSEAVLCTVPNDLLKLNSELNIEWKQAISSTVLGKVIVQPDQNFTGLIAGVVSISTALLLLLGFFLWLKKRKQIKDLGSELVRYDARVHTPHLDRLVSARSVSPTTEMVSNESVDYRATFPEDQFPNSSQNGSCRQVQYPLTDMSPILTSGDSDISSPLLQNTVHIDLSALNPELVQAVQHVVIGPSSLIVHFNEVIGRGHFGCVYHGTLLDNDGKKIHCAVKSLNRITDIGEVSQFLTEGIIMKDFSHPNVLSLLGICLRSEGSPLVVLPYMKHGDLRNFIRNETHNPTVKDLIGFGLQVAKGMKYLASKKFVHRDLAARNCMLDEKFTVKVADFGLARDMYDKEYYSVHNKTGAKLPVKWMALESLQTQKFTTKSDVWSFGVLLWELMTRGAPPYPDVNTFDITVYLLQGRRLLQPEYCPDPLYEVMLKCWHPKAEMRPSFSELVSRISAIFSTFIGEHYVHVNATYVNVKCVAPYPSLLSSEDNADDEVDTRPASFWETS

SMILES	IC50 (MET kinase)	IC50 [1]	IC50 [2]	IC50 [3]
Cn1ncc2ccc(-c3n[nH]c4c3Cc3sc(-c5ccc(CN6CCCCC6)cc5)cc3-4)cc21 [Compound 100, 3-(1-methyl-1H-indazol-6-yl)-6-(4-(piperidin-1-ylmethyl)phenyl)-1,4-dihydrothieno[2′,3′:4,5] cyclopenta[1,2-c]pyrazole]	0.1 to 0.3 µM	> 10 µM	> 10 µM	1 to 10 µM
Cn1ncc2ccc(-c3n[nH]c4c3Cc3sc(-c5ccc(CN6CC7(COC7)C6)cc5)cc3-4)cc21 [Compound 102, 6-(4-(3-(1-methyl-1H-indazol-6-yl)-1,4-dihydro-thieno[2′,3′:4,5]cyclopenta [1,2-c]pyrazol-6-yl)benzyl)-2-oxa-6-azaspiro [3.3]heptane]	0.3 to 1 µM	> 10 µM	> 10 µM	> 10 µM
Cn1ncc2ccc(-c3n[nH]c4c3Cc3sc(-c5ccc(CN6CCC6)cc5)cc3-4)cc21 [Compound 103, 6-(4-(azetidin-1-ylmethyl)phenyl)-3-(1-methyl-1H-indazol-6-yl)-1,4-dihydro-thieno[2′,3′:4,5]cyclopenta [1,2-c]pyrazole]	0.3 to 1 µM	> 10 µM	> 10 µM	> 10 µM
Cn1ncc2ccc(-c3n[nH]c4c3Cc3sc(-c5ccc(CN6CC(F)(F)C6)cc5)cc3-4)cc21 [Compound 104, 6-(4-((3,3-difluoroazeti-din-1-yl)methyl)phenyl)-3-(1-methyl-1H-indazol-6-yl)-1,4-dihydrothieno [2′,3′:4,5]cyclopenta [1,2-c]pyrazole]	> 1 µM	> 10 µM	1 to 10 µM	1 to 10 µM
COC1CN(Cc2ccc(-c3cc4c(s3)Cc3c(-c5ccc6cnn(C)c6c5)n[nH]c3-4)cc2)C1 [Compound 105, 6-(4-((3-methoxyazeti-din-1-yl)methyl)phenyl)-3-(1-methyl-1H-indazol-6-yl)-1,4-dihydrothieno [2′,3′:4,5]cyclopenta [1,2-c]pyrazole]	0.3 to 1 µM	> 10 µM	> 10 µM	> 10 µM
